These results are taken from patent publication US8669251B2, “8-fluorophthalazin-1(2H)-one compounds” (Genentech, Inc., priority 2011, dated 2014).

The assay deals with production of CD69 by B lymphocytes in human whole blood. Kind of assay: CD69 Whole Blood Assay (CD69 Hu Blood FACS). In kind it is cell-based. As to conditions: human whole blood activated with goat F(ab')2 anti-human IgM, 20 hours, CD69 on CD20 positive cells by FACS. An excerpt: A CD69 Whole Blood Assay can be conducted on Formula I compounds to determine the ability of compounds to inhibit the production of CD69 by B lymphocytes in human whole blood activated by crosslinking surface IgM with goat F(ab′)2 anti-human IgM (Example 907). CD69 is a type II C-type lectin involved in lymphocyte migration and cytokine secretion. CD69 expression represents one of the earliest available indicators of leukocyte activation and its rapid induction occurs through transcriptional activation (Vazquez et al (2009) Jour. of Immunology Published Oct. 19, 2009, doi:10.4049/jimmunol.0900839). Concentration-dependent inhibition of antigen receptor stimulation by selective Btk inhibitors induces cell surface expression of the lymphocyte activation marker CD69 (Honigberg et al (2010) Proc. Natl. Acad. Sci. 107(29):13075-13080). Thus, CD69 inhibition by selective Btk inhibitors may be correlated with therapeutic efficacy of certain B-cell disorders.
Human blood is obtained from healthy volunteers, with the following restrictions: 1 week drug-free, non-smokers. Blood (approximately 20 mls to test 8 compounds) is collected by venipuncture into Vacutainer® (Becton, Dickinson and Co.) tubes with sodium heparin.
Solutions of Formula I and II compounds at 10 mM in DMSO are diluted 1:10 in 100% DMSO, then are diluted by three-fold serial dilutions in 100% DMSO for a ten point dose-response curve. The compounds are further diluted 1:10 in PBS and then an aliquot of 5.5 μl of each compound is added in duplicate to a 2 ml 96-well plate; 5.5 μl of 10% DMSO in PBS is added as control and no-stimulus wells. Human whole blood —HWB (100 μl) is added to each well. After mixing the plates are incubated at 37° C., 5% CO2, 100% humidity for 30 minutes. Goat F(ab′)2 anti-human IgM (10 μl of a 500 μg/ml solution, 50 μg/ml final) is added to each well (except the no-stimulus wells) with mixing and the plates are incubated for an additional 20 hours. At the end of the 20 hour incubation, samples are incubated with fluorescent labeled antibodies for 30 minutes, at 37° C., 5% CO2, 100% humidity. Include induced control, unstained and single stains for compensation adjustments and initial voltage settings. Samples are then lysed with PharM Lyse™ (BD Biosciences Pharmingen) according to the manufacturer's instructions. Samples are then transferred to a 96 well plate suitable to be run on the BD Biosciences HTS 96 well system on the LSRII machine. Data acquired and Mean Fluorescence Intensity values were obtained using BD Biosciences DIVA Software. Results are initially analyzed by FACS analysis software (Flow Jo). […] The inhibitory concentration (IC50, IC70, IC90) values are calculated by Prism version 5, using a nonlinear regression curve fit.
For orientation: Flow cytometry measures light scatter and fluorescence of single cells or particles in a stream.

The structures appear in SMILES notation.

`CN1CCn2nc(Nc3cc(-c4ccnc(-n5ncc6cc(C(C)(C)C)cc(F)c6c5=O)c4CO)cn(C)c3=O)cc2C1` [Compound 128, 6-tert-butyl-8-fluoro-2-[3-(hydroxymethyl)-4-[1-methyl-5-[(5-methyl-6,7-dihydro-4H-pyrazolo[1,5-a]pyrazin-2-yl)amino]-6-oxo-3-pyridyl]-2-pyridyl]phthalazin-1-one] showed a CD69 Hu Blood FACS (IC70) (Table 2) of 0.0272 µM. Same read-out and setting: under `COCc1cc(Nc2cc(-c3ccnc(-n4ncc5cc(C(C)(C)C)cc(F)c5c4=O)c3CO)cn(C)c2=O)nn1C` [Compound 143, 6-tert-butyl-8-fluoro-2-[3-(hydroxymethyl)-4-[5-[[5-(methoxymethyl)-1-methyl-pyrazol-3-yl]amino]-1-methyl-6-oxo-3-pyridyl]-2-pyridyl]phthalazin-1-one] stands 0.0131 µM; under `Cn1cc(-c2ccnc(-n3ncc4cc(C(C)(C)C)cc(F)c4c3=O)c2CO)cc(Nc2cc[nH]n2)c1=O` [Compound 152, 6-tert-butyl-8-fluoro-2-[3-(hydroxymethyl)-4-[1-methyl-6-oxo-5-(1H-pyrazol-3-ylamino)-3-pyridyl]-2-pyridyl]phthalazin-1-one], 0.0459 µM.

Where the note is “Table 1”, `C[C@H]1CN(C2COC2)CCN1c1ccc(Nc2cc(-c3cc(F)cc(-n4ncc5cc(C(C)(C)C)cc(F)c5c4=O)c3CO)cn(C)c2=O)nc1` [Compound 104, (S)-6-tert-butyl-8-fluoro-2-(5-fluoro-2-(hydroxymethyl)-3-(1-methyl-5-(5-(2-methyl-4-(oxetan-3-yl)piperazin-1-yl)pyridin-2-ylamino)-6-oxo-1,6-dihydropyridin-3-yl)phenyl)phthalazin-1(2H)-one] came in with a CD69 Hu Blood FACS (IC70) of 0.0329 µM.

Under “Table 1”, `C[C@@H]1CN(C2COC2)CCN1c1ccc(Nc2cc(-c3cc(F)cc(-n4ncc5cc(C(C)(C)C)cc(F)c5c4=O)c3CO)cn(C)c2=O)nc1` [Compound 107, (R)-6-tert-butyl-8-fluoro-2-(5-fluoro-2-(hydroxymethyl)-3-(1-methyl-5-(5-(2-methyl-4-(oxetan-3-yl)piperazin-1-yl)pyridin-2-ylamino)-6-oxo-1,6-dihydropyridin-3-yl)phenyl)phthalazin-1(2H)-one] displayed a CD69 Hu Blood FACS (IC70) of 0.0263 µM.

For the setting “Table 1”, `C[C@H]1CN(C2COC2)CCN1c1ccc(Nc2cc(-c3cncc(-n4ncc5cc(C(C)(C)C)cc(F)c5c4=O)c3CO)cn(C)c2=O)nc1` [Compound 109, (S)-6-tert-butyl-8-fluoro-2-(4-(hydroxymethyl)-5-(1-methyl-5-(5-(2-methyl-4-(oxetan-3-yl)piperazin-1-yl)pyridin-2-ylamino)-6-oxo-1,6-dihydropyridin-3-yl)pyridin-3-yl)phthalazin-1(2H)-one] displayed a CD69 Hu Blood FACS (IC70) of 0.012 µM. The same measure, in the same setting: under `CN1CCN(c2ccc(Nc3cc(-c4cccc(-n5ncc6cc(C(C)(C)C)cc(F)c6c5=O)c4CO)cn(C)c3=O)nc2)CC1` [Compound 101, 6-tert-butyl-8-fluoro-2-(2-(hydroxymethyl)-3-(1-methyl-5-(5-(4-methylpiperazin-1-yl)pyridin-2-yl-amino)-6-oxo-1,6-dihydropyridin-3-yl)phenyl)phthalazin-1(2H)-one] stands 0.024 µM. Regarding `Cn1cc(-c2ccnc(-n3ncc4cc(C(C)(C)C)cc(F)c4c3=O)c2CO)cc(Nc2cc3n(n2)CC(C)(C)OC3)c1=O` [Compound 139, 6-tert-butyl-2-[4-[5-[(6,6-dimethyl-4,7-dihydropyrazolo[5,1-c][1,4]oxazin-2-yl)amino]-1-methyl-6-oxo-3-pyridyl]-3-(hydroxymethyl)-2-pyridyl]-8-fluoro-phthalazin-1-one], the CD69 Hu Blood FACS (IC70) (Table 2) was 0.0616 µM. In the case of `Cc1cc(Nc2cc(-c3ccnc(-n4ncc5cc(C(C)(C)C)cc(F)c5c4=O)c3CO)nn(C)c2=O)no1` [Compound 141, 6-tert-butyl-8-fluoro-2-[3-(hydroxymethyl)-4-[1-methyl-5-[(5-methylisoxazol-3-yl)amino]-6-oxo-pyridazin-3-yl]-2-pyridyl]phthalazin-1-one], where the note is “Table 2”, the CD69 Hu Blood FACS (IC70) amounted to 0.295 µM. Still for that read-out and setting: under `CN1CCn2nc(Nc3cc(-c4ccnc(-n5ncc6cc(C(C)(C)C)cc(F)c6c5=O)c4CO)nn(C)c3=O)cc2C1` [Compound 153, 6-tert-butyl-8-fluoro-2-[3-(hydroxymethyl)-4-[1-methyl-5-[(5-methyl-6,7-dihydro-4H-pyrazolo[1,5-a]pyrazin-2-yl)amino]-6-oxo-pyridazin-3-yl]-2-pyridyl]phthalazin-1-one] stands 0.0596 µM; under `Cc1cnc(Nc2cc(-c3ccnc(-n4ncc5cc(C(C)(C)C)cc(F)c5c4=O)c3CO)cn(C)c2=O)o1` [Compound 125, 6-tert-butyl-8-fluoro-2-[3-(hydroxymethyl)-4-[1-methyl-5-[(5-methyloxazol-2-yl)amino]-6-oxo-3-pyridyl]-2-pyridyl]phthalazin-1-one], 0.521 µM. On the same count and under the same terms, under `Cn1cc(-c2ccnc(-n3ncc4cc(C(C)(C)C)cc(F)c4c3=O)c2CO)cc(Nc2cc3n(n2)CCOC3)c1=O` [Compound 131, 6-tert-butyl-2-[4-[5-(6,7-dihydro-4H-pyrazolo[5,1-c][1,4]oxazin-2-ylamino)-1-methyl-6-oxo-3-pyridyl]-3-(hydroxymethyl)-2-pyridyl]-8-fluoro-phthalazin-1-one] stands 0.0171 µM; under `CC(C)C(=O)N1CCn2nc(Nc3cc(-c4ccnc(-n5ncc6cc(C(C)(C)C)cc(F)c6c5=O)c4CO)cn(C)c3=O)cc2C1` [Compound 148, 6-tert-butyl-8-fluoro-2-[3-(hydroxymethyl)-4-[1-methyl-5-[[5-(2-methylpropanoyl)-6,7-dihydro-4H-pyrazolo[1,5-a]pyrazin-2-yl]amino]-6-oxo-3-pyridyl]-2-pyridyl]phthalazin-1-one], 0.0139 µM.

As for `Cn1cc(-c2ccnc(-n3ncc4cc(C(C)(C)C)cc(F)c4c3=O)c2CO)cc(Nc2cc3n(n2)CCN(CC(F)F)C3)c1=O` [Compound 135, 6-tert-butyl-2-[4-[5-[[5-(2,2-difluoroethyl)-6,7-dihydro-4H-pyrazolo[1,5-a]pyrazin-2-yl]amino]-1-methyl-6-oxo-3-pyridyl]-3-(hydroxymethyl)-2-pyridyl]-8-fluoro-phthalazin-1-one], the CD69 Hu Blood FACS (IC70) (Table 2) was determined as 0.02 µM. The same measure, in the same setting: as for `C[C@H]1COCCN1C(=O)c1ccc(Nc2cc(-c3ccnc(-n4ncc5cc(C(C)(C)C)cc(F)c5c4=O)c3CO)cn(C)c2=O)nc1` [Compound 136, 6-tert-butyl-8-fluoro-2-[3-(hydroxymethyl)-4-[1-methyl-5-[[5-[(3S)-3-methylmorpholine-4-carbonyl]-2-pyridyl]amino]-6-oxo-3-pyridyl]-2-pyridyl]phthalazin-1-one], the figure is 0.0145 µM; as for `Cn1cc(-c2ccnc(-n3ncc4cc(C(C)(C)C)cc(F)c4c3=O)c2CO)cc(Nc2cnn(C(F)F)n2)c1=O` [Compound 159, 6-tert-butyl-2-[4-[5-[[2-(difluoromethyl)triazol-4-yl]amino]-1-methyl-6-oxo-3-pyridyl]-3-(hydroxymethyl)-2-pyridyl]-8-fluoro-phthalazin-1-one], 0.208 µM; as for `Cc1nccc(Nc2cc(-c3ccnc(-n4ncc5cc(C(C)(C)C)cc(F)c5c4=O)c3CO)cn(C)c2=O)n1` [Compound 114, 6-tert-butyl-8-fluoro-2-[3-(hydroxymethyl)-4-[1-methyl-5-[(2-methylpyrimidin-4-yl)amino]-6-oxo-3-pyridyl]-2-pyridyl]phthalazin-1-one], 0.0114 µM. Still for that read-out and setting: under `CC(C)N1Cc2cc(Nc3cc(-c4ccnc(-n5ncc6cc(C(C)(C)C)cc(F)c6c5=O)c4CO)cn(C)c3=O)nn2CC1=O` [Compound 151, 6-tert-butyl-8-fluoro-2-[3-(hydroxymethyl)-4-[5-[(5-isopropyl-6-oxo-4,7-dihydropyrazolo[1,5-a]pyrazin-2-yl)amino]-1-methyl-6-oxo-3-pyridyl]-2-pyridyl]phthalazin-1-one] stands 0.0141 µM. On the same count and under the same terms, as for `Cc1cc(Nc2cc(-c3ccnc(-n4ncc5cc(C(C)(C)C)cc(F)c5c4=O)c3CO)cn(C)c2=O)nn1CC(F)F` [Compound 145, 6-tert-butyl-2-[4-[5-[[1-(2,2-difluoroethyl)-5-methyl-pyrazol-3-yl]amino]-1-methyl-6-oxo-3-pyridyl]-3-(hydroxymethyl)-2-pyridyl]-8-fluoro-phthalazin-1-one], the figure is 0.163 µM.
